The target of assay [1] is T1, PGD2 Receptor (Homo sapiens, UniProt Q13258).
T1 construct: A suspension adjusted to contain platelet at a final concentration of; endogenous in cells; host or cells: washed human platelets from peripheral blood of a healthy volunteer
T1 sequence (Q13258 1-359): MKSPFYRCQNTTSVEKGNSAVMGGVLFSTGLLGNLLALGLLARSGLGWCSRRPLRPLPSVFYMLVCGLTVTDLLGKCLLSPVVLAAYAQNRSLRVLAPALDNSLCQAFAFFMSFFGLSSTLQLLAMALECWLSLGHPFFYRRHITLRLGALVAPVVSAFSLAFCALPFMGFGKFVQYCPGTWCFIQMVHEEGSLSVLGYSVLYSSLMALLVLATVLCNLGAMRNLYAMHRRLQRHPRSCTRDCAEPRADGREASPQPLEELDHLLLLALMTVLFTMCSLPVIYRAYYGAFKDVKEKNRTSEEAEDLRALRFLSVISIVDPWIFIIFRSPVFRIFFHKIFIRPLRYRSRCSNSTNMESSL
Description: Binding to PGD2 receptor (human platelet membrane fraction, [3H]PGD2). Particulars: human platelet membrane fraction 0.1 mg, 5 nM [3H]PGD2, 4° C., 90 min, pH 7.4; read-out: IC50 (inhibition of [3H]PGD2 binding). The protocol:
Experiment 1 Binding to PGD2 Receptor
(1) Preparation of Human Platelet Membrane Fraction
Blood sample was obtained using a plastic syringe containing 3.8% sodium citrate from the vein of healthy volunteers (adult male and female), put into a plastic test tube and mixed gently by rotation. The sample was then centrifuged at 1800 rpm, 10 min at room temperature, and the supernatant containing PRP (platelet-rich plasma) was collected. The PRP was re-centrifuged at […], 22 min at room temperature to obtain platelets. The platelets were homogenized using a homogenizer (Ultra-Turrax) followed by centrifugation 3 times at 20,000 rpm, 10 min at 4° C. to obtain a platelet membrane fraction. After protein determination, the membrane fraction was adjusted to 2 mg/ml and preserved in a refrigerator at -80° C. until use.
(2) Binding to PGD2 Receptor
To a binding-reaction solution (50 mM Tris/HCl, pH 7.4, 5 mM MgCl2) (0.2 ml) were added the human platelet membrane fraction (0.1 mg) and 5 nM [^3 H]PGD2 (115Ci/mmol), and reacted at 4° C. for 90 min. After the reaction completed, the reaction mixture was filtered through a glass fiber filter paper, washed several times with cooled saline, and measured the radioactivity retained on the filter paper. The specific binding was calculated by subtracting the non-specific binding (the binding in the presence of 10 μM PGD2) from the total binding. The inhibitory activity of each compound was expressed as the concentration required for 50% inhibition (IC50), which was determined by depicting a substitution curve by plotting the binding ratio (%) in the presence of each compound, where the binding ratio in the absence of a test compound is 100%.

Assay [2] has as its system nasal blockage (intranasal pressure). Description: Nasal blockage model in sensitized guinea pigs (intranasal pressure after OVA challenge). Particulars: oral, 60 min before antigen exposure; AUC of intranasal pressure 0-30 min vs vehicle; dose not given. In kind it is in vivo, Hartley male guinea pig. The protocol:
Experiment 3 Experiment Using Nasal Blockage Model
The method used for measuring the intranasal pressure for evaluating the anti-nasal blockage using guinea pigs is described below.
A 1% ovalbumin (OVA) solution was treated with an ultrasonic nebulizer to obtain an aerosol. Hartley male guinea pig was sensitized by inhaling twice the aerosol for 10 min at one-week interval. Seven-day after the sensitization, the guinea pig was exposed to an antigen to initiate the reaction. Briefly, the trachea was incised under the anesthesia with pentobarbital (30 mg/kg. i.p.) and cannulas were inserted into the trachea at the pulmonary and nasal cavity sides. The canal inserted at the pulmonary side was connected with an artificial respirator that provides 4 ml air 60 times/min. After arresting the spontaneous respiration of the guinea pig with Gallamin (2 mg/kg, i.v.), air was supplied to the snout side with an artificial respirator at the frequency of 70 times/min, and the flow rate of 4 ml air/time, and the atmospheric pressure required for the aeration was measured by the use of a transducer fitted at the branch. The measurement was used as a parameter of the nasal cavity resistance. The exposure of an antigen was carried out by generating aerosol of 3% OVA solution for 3 min between the respirator and the nasal cavity cannula. […]

In assay [3] the target is T1, PGD2 Receptor. Description: Antagonistic activity against PGD2 receptor using human platelet (PGD2-induced cAMP increase). The class given is cell-based. As to conditions: human platelets 5×10^8/ml, 0.1 μM PGD2, IBMX 0.5 mM, cAMP by radioimmunoassay; read-out: IC50 (inhibition of cAMP increased by PGD2). On the procedure:
Experiment 2 Evaluation of Antagonistic Activity Against PGD2 Receptor Using Human Platelet Peripheral blood was obtained from a healthy volunteer using a syringe in which 1/9 volume of citric acid/dextrose solution has been previously added. The syringe was subjected to centrifugation at 180 g for 10 min to obtain the supernatant (PRP:platelet rich plasma). The resultant PRP was washed 3 times with a washing buffer and the number of platelet was counted with a micro cell counter. A suspension adjusted to contain platelet at a final concentration of 5×10^8 /ml was warmed at 37° C., and then subjected to the pre-treatment with 3-isobutyl-1-methylxanthine (0.5 mM) for 5 min. To the suspension was added a test compound diluted at various concentration. Ten-minute later, the reaction was induced by the addition of 0.1 μM PGD2 and, 2-minute later, stopped by the addition of hydrochloric acid. The platelet was destroyed with an ultrasonic homogenizer. After centrifugation, the cAMP in the supernatant was determined by radioimmunoassay. PGD2 receptor antagonism of a drug was evaluated as follows. The inhibition rate regarding cAMP increased by the addition of PGD2 was determined at individual concentration, and then the concentration of the drug required for 50% inhibition (IC50) was calculated.

From US6069166A, “Fused heterocyclic benzenecarboxamide derivatives and PGD2 antagonists comprising them” (Shionogi & Co., Ltd., priority 1996, dated 2000) come the findings set out here.

Each structure is given as a SMILES string.

One may read the IC50 as the concentration that gives 50% inhibition.

With `CC1(C)[C@H]2C[C@H](C/C=C\CCCC(=O)O)[C@@H](NC(=O)c3cccc4ccsc34)[C@@H]1C2` [IA-a-1], the IC50 in assay [1] was determined as 26 nM; in assay [3] it was 42 nM. Besides, in assay [2], the “Inhibitory Rate (%)” value is 80%.
Consider `CC1(C)[C@H]2C[C@H](C/C=C\CCCC(=O)O)[C@@H](NC(=O)c3cccc4c(Br)csc34)[C@@H]1C2` [IA-a-7], for which the figures for the IC50 in assay [1] and in assay [3] were 1.2 nM and 11 nM, respectively.
On to `COc1csc2c(C(=O)N[C@@H]3[C@@H](C/C=C\CCCC(=O)O)C[C@H]4C[C@@H]3C4(C)C)cccc12` [IA-a-9], for which the values for the IC50 in assay [1] and in assay [3] were 0.41 nM and 4.4 nM, respectively.
In the case of `Cc1csc2c(C(=O)N[C@@H]3[C@@H](C/C=C\CCCC(=O)O)C[C@H]4C[C@@H]3C4(C)C)cccc12` [IA-a-4], the IC50 turned out to be 11 nM in assay [1] and 150 nM in assay [3].
